Series [1] deals with T1, Recombinant EGFR (Homo sapiens, UniProt P00533).
T1 construct: purchased Invitrogen
Put plainly: EGFR binding affinity (TR-FRET). The conditions noted are these: 2.5 nM recombinant EGFR, five hours incubation, Table 3 categories. The protocol:
EGFR binding affinity was determined using a time-resolved fluorescence resonance energy transfer (TR-FRET) methodology. 2.5 nM Recombinant EGFR, varying concentrations of inhibitor, 2 nM LanthaScreen™ Eu anti-GST Antibody and 3 nM Kinase Tracer 199 was incubated in 1× LanthaScreen™ Kinase Buffer A for five hours. Recombinant EGFR and all LanthaScreen™ components were purchased from Invitrogen. Measurements were performed in a reaction volume of 30 μL using half-area 96-well assay plates. The TR-FRET signal was read on a plate reader with an excitation wavelength of 340 nm and detection wavelengths of 615 and 665 nm. Binding affinity was determined for each compound by measuring TR-FRET signal at various concentrations of compound and plotting the relative fluorescence units against the inhibitor concentration to estimate the IC50 from log [Inhibitor] vs response using the Variable Slope model in Graphpad prism from Graphpad software (SanDiego, Calif.).

For series [2], the system named is TMD8 human DLBCL cells. Put plainly: TMD8 growth assay. It counts as cell-based. The conditions noted are these: 72 hours, Resazurin, Table 3 categories. The protocol:
Compounds were assayed for effects on the growth of TMD8 human DLBCL cells that are dependent on NFκB signalling. TMD8 cells were grown in suspension in T225 flasks, centrifuged and re-suspended in 2.5% FBS containing media. Cells were then plated at 1.0×10^4 cells per well in 96-well plates in varying concentrations of compound and incubated for 72 hours at 37° C. An additional plate of cells to be used as the Day 0 read was seeded without compound addition, Resazurin was added to each well, incubated for 5 h and the fluorescence measured at 590 nm. After 72 h of compound treatment, Resazurin was added to each well of the compound treated plates, incubated for 5 hours and the fluorescence measured at 590 nm. The IC50 was then calculated but subtracting the average Day 0 value from each well value from the treated plates, each treatment was then calculated as a percentage of the DMSO control and the percentages plotted against the inhibitor concentration to estimate the IC50 from log [Inhibitor] vs response using the Variable Slope model in Graphpad prism from Graphpad software (San Diego, Calif.).

Series [3] has as its target T2, Recombinant BTK kinase (Homo sapiens, UniProt Q06187).
T2 construct: purchased Invitrogen
Put plainly: BTK binding affinity (TR-FRET). The protocol:
BTK binding affinity of each compound tested was determined using a time-resolved fluorescence resonance energy transfer (TR-FRET) methodology. 2.5 nM Recombinant BTK kinase, varying concentrations of inhibitor, 2 nM LanthaScreen™ Eu anti-His Antibody and 15 nM Kinase Tracer 236 was incubated in 1× LanthaScreen™ Kinase Buffer A for five hours. Recombinant BTK kinase and all LanthaScreen™ components were purchased from Invitrogen. Measurements were performed in a reaction volume of 30 μL using half-area 96-well assay plates. The TR-FRET signal was read on a plate reader with an excitation wavelength of 340 nm and detection wavelengths of 615 and 665 nm. Binding affinity was determined for each compound by measuring TR-FRET signal at various concentrations of compound and plotting the relative fluorescence units against the inhibitor concentration to estimate the IC50 from log [Inhibitor] vs response using the Variable Slope model in Graphpad prism from Graphpad software (SanDiego, Calif.).

The conditions of series [4]: rat; cited from earlier work.
[5] abbreviates: 2.5 nM recombinant BTK, five hours incubation, Table 3 categories.

SMILES strings stand for the structures.

T2 sequence (Q06187 whole entry): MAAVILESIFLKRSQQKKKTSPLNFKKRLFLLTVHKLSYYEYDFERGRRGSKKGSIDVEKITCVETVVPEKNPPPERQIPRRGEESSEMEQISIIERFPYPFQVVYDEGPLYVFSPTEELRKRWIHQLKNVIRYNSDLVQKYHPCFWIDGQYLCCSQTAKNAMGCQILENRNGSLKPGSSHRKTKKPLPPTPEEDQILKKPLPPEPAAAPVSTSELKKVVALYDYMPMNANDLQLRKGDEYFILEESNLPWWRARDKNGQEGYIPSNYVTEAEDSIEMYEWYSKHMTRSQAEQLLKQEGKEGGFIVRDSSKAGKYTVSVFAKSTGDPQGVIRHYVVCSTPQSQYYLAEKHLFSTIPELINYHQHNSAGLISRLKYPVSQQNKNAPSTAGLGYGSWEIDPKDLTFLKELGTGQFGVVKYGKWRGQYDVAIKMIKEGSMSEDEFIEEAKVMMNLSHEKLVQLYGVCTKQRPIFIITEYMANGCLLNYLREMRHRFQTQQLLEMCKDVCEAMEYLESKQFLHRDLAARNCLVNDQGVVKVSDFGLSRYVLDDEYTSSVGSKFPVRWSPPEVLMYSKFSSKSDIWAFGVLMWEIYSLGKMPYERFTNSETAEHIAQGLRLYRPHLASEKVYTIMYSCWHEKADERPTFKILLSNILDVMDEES
T1 sequence (P00533 25-1210): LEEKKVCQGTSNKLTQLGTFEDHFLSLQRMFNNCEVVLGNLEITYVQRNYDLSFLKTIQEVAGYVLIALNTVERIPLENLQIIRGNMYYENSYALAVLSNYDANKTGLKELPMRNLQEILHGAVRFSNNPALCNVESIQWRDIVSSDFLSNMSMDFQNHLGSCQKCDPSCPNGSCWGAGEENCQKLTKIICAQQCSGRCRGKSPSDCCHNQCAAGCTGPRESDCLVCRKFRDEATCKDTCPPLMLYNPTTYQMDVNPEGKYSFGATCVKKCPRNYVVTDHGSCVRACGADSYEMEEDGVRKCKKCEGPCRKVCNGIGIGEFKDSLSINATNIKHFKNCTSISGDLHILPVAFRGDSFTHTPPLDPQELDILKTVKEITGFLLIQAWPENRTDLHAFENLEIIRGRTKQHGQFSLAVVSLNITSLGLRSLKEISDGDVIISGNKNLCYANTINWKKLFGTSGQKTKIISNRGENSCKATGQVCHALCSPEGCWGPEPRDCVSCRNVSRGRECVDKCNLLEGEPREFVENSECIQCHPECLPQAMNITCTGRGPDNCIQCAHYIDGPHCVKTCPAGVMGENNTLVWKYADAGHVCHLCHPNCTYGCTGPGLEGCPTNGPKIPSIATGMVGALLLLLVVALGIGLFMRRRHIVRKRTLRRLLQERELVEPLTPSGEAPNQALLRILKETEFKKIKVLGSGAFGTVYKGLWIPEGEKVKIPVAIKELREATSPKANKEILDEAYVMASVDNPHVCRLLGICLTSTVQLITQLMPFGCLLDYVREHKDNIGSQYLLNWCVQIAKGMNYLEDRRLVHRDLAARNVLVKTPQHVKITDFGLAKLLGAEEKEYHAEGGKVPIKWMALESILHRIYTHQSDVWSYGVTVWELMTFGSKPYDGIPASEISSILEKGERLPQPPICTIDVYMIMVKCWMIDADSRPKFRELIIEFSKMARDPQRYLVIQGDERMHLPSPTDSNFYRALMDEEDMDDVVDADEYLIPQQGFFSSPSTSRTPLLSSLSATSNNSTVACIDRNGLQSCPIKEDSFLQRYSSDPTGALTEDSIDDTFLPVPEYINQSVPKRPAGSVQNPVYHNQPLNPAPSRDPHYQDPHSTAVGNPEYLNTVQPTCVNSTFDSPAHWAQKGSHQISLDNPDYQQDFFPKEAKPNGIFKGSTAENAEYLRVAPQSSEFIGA

Take `C=CC(=O)N1CCC[C@@H](n2nc(-c3ccc(CNC(=O)c4ccc(C)cc4OC)cc3)c3c(N)ncnc32)C1` [ID No. 15, N-[[4-[4-amino-1-[(3R)-1-prop-2-enoyl-3-piperidyl]pyrazolo[3,4-d]pyrimidin-3-yl]phenyl]methyl]-2-methoxy-4-methyl-benzamide]: the half-maximal inhibitory concentration (IC50) is 25 to 80 nM in series [1], below 5 nM in series [2], 0.5 to 1 nM in series [3] (setting [5]) and 0.7 nM in series [3] (Table 4 numeric values).
With `C=CC(=O)N1CCC[C@@H](n2nc(-c3ccc(CNC(=O)c4ccc(C(F)(F)F)cc4F)cc3)c3c(N)ncnc32)C1` [ID No. 36, N-[[4-[4-amino-1-[(3R)-1-prop-2-enoyl-3-piperidyl]pyrazolo[3,4-d]pyrimidin-3-yl]phenyl]methyl]-2-fluoro-4-(trifluoromethyl)benzamide], the IC50 in series [1] was below 25 nM; in series [2], 25 to 300 nM; in series [3] (setting [5]), 1 to 10 nM.
On to `C=CC(=O)N1CCC[C@@H](n2nc(-c3ccc(Oc4ccccc4)cc3)c3c(N)ncnc32)C1` [Ibrutinib], for which, in series [4], the bioavailability result is given as “poor” and the estimated fraction absorbed result is “low”.

The values are drawn from patent US9975897B2, “Pyrazolopyrimidine derivatives useful as inhibitors of Bruton's tyrosine kinase” (Loxo Oncology, Inc., priority 2014, dated 2018).
